Results from patent US11884649B2, “IRE1α inhibitors and uses thereof” (The Regents of the University of California, priority 2020, dated 2024).

Key:
[1] = test system: XBP1 mRNA splicing / RIDD; assay: XBP1 splicing and Blos1 mRNA in LPS-treated splenocytes; assay type: cell-based, mouse; conditions: LPS treatment
[2] = test system: lysate kinases (HEK293/HCT116 lysate mixture); assay: Kinome selectivity profiling by kinobead competition; assay type: binding; conditions: 10 μM compound
Method: Prior to conducting cellular studies with PAIRs, we first performed comprehensive kinome selectivity profiling using a chemical proteomic method (FIG. 4A).^41-43 To do this, we measured the ability of 1, 2, 5, 6, PAIR, and KIRA9 to compete with lysate kinases for binding to a mixture of bead-immobilized, nonselective kinase inhibitors (kinobeads). Each compound (10 μM) was incubated with a standard kinobead matrix and a HEK293/HCT116 lysate mixture and competed kinases were quantified using mass spectrometry.
Kinome Profiling and Selectivity Kinobead Enrichment Protocol
HEK293 and HCT116 cells were plated on 15 cm plates until 90% confluent and lysed into 750 μL modified RIPA buffer (50 mM Tris, 150 mM NaCl, 10 mM NaF, 1% NP40, 0.25% sodium deoxycholate, 5% glycerol, pH 7.8) containing protease inhibitor (Pierce Protease Inhibitor Tablets and 1 mM PMSF) and phosphatase inhibitor (Phosphatase inhibitor cocktail 2 and 3, Sigma Aldrich). Protein content was determined via Bradford assay. […]
Tryptic peptides were separated using a nanoAcquity UPLC instrument with 10 cm fused silica capillary columns made in house and packed with 5 μm 120 Å reverse-phase C18 beads (ReproSil-Pur®, Maisch). […] MS data was analyzed using a Thermo Orbitrap Fusion Tribrid. Raw files were analyzed using MaxQuant (Andromeda) Version 1.6.0.16. […]

## O=S(=O)(CCC(F)(F)F)Nc1ccc(Oc2ncccc2-c2ccnc(NC3CCCNC3)n2)c2ccccc12 (stereo not drawn) [KIRA9, 3,3,3-trifluoro-N-(4-(3-(2-(piperidin-3-ylamino)pyrimidin-4-yl)pyridin-2-yloxy)naphthalen-1-yl)propane-1-sulfonamide]
[1]
  Blos1 mRNA decay: significantly rescued
  XBP1 mRNA splicing: reversed
[2]
  kinome selectivity: equivalent potency and selectivity

## O=S(=O)(CC(F)(F)F)Nc1ccc(Oc2ncccc2-c2ccnc(N[C@H]3CCCNC3)n2)c2ccccc12 (stereo in doubt) [PAIR1, 2,2,2-trifluoro-N-(4-(3-(2-(piperidin-3-ylamino)pyrimidin-4-yl)pyridin-2-yloxy)naphthalen-1-yl)ethanesulfonamide]
[1]
  Blos1 mRNA decay: significantly rescued
  XBP1 mRNA splicing: reversed with KIRA9, but not with PAIR1
[2]
  kinome selectivity: high selectivity for IRE1α
